# “Also recorded” adds a separate entry of the source.
# Assays:
# Assay type in all cases: biochemical
# Orco = target: T1, Orco (Drosophila melanogaster, UniProt Q9VNB5); experiment: EIS sensor, Orco liposomes (specificity control); conditions: Orco only liposomes
# T1 construct: his-tag; made in house; host or cells: baculovirus-infected Sf9 cells
# T1 sequence (Q9VNB5 1-486): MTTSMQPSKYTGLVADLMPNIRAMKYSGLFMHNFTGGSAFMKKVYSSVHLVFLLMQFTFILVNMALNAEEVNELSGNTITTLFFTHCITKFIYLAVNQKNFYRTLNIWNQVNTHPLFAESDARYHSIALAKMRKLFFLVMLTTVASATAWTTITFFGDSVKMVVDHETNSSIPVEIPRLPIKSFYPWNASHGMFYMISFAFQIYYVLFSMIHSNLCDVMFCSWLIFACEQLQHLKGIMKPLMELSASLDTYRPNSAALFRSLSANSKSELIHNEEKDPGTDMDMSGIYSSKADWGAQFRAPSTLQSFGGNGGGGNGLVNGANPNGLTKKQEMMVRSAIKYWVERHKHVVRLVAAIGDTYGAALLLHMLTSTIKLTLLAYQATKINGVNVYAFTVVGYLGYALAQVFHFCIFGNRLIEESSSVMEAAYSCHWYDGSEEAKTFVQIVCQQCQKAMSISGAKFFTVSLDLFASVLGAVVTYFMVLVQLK
# Description: Prior to their use, liposomes were defrosted on ice and then destabilized by incubating with 0.2% CHAPS for 15 min at room temperature. Then 200 μg of purified odorant receptor^28 was added to 1 mg of liposomes and rotated at 10 rpm for 1 h at room temperature. Excess detergent was removed by four additions of 25 mg of Bio-Beads SM-2 (Bio-Rad, USA) and incubation at 4° C. for 30 min, 2 h, overnight and a further 2 h respectively. The Bio-Beads were removed after each incubation period. The OrX or OrX/Orco integrated liposomes were pelleted by centrifugation at 100,000 g for 1 h, and were resuspended in 500 μL of rehydration buffer. Integration of OrXs and Orco into liposomes was assessed by density gradient ultracentrifugation (DGU) using Accudenz (Accurate Chemical & Scientific Corporation, USA). The integrated liposomes were brought to 40% Accudenz by the addition of an equal volume of 80% Accudenz solution, placed at the bottom of an ultra-centrifugation tube, and overlaid with 30% Accudenz solution, and DGU buffer (25 mM HEPES pH 7.5, 100 mM NaCl, 10% glycerol). The sample was then centrifuged at 100,000 g for 4 h at 4° C. […]
# PBS solution was prepared by immersing one tablet of PBS in 200 ml of milli-Q water (according to manufacturers instructions) and filtered using 0.2-μm syringe filter. The pH of the prepared buffer solution was measured with a pH meter. […]
# Or10a = target: T2, Or10a (Drosophila melanogaster, UniProt Q9VYZ1); experiment: QCM-D sensor, Or10a liposomes; conditions: 1.6 to 1000 μM in PBS with 1% DMSO
# T2 construct: his-tag; made in house; host or cells: baculovirus-infected Sf9 cells
# T2 sequence (Q9VYZ1 1-406): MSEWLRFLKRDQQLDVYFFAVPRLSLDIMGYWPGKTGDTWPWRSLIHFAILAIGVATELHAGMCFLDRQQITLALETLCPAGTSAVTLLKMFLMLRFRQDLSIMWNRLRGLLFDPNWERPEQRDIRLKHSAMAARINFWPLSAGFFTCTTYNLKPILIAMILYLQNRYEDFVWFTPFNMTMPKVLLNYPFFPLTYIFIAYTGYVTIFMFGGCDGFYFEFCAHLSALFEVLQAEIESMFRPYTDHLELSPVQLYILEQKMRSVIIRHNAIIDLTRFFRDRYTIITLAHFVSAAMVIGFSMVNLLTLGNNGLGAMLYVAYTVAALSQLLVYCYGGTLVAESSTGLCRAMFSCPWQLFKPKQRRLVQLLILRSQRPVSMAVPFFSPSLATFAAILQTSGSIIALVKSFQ
# Description: (§1) Gold (100 nm) sensor crystals were sonicated in ethanol and milli-Q water for 15 minutes each respectively. A 5:1:1 volume ratio of milli-Q water, ammonia (25%), and hydrogen peroxide (30%) was heated to 75° C. for 5 minutes and the sonicated crystals were placed in the heated solution for 5 minutes. Then the crystals were removed from the solution and rinsed with milli-Q water before drying with nitrogen gas. The clean gold crystals were thiol-functionalized by exposing them to 2 mM ethanolic solution of MHA overnight followed by washing with ethanol solution in order to remove excess or loosely bound molecules. NHS/EDC was prepared using 2:1 mol:mol ratio of EDC:NHS (100 mM EDC, 50 mM NHS) in 2 ml PBS (pH=6.5) solution. Each OrX/liposome stock solution was diluted 100 fold for QCM-D measurements in PBS buffer solution (pH=7.4). The SAM functionalized crystals were then placed into the Q-sense analyser instrument (Biolin Scientific) chamber and flowed with the NHS/EDC, Or10a/liposomes or Or10a/Orco liposomes, and various concentrations of methyl hexanoate (1.6 μM, 8 μM, 20 μM, 40 μM, 100 μM, 200 μM, 500 μM and 1000 μM) in PBS buffer solution containing 1% DMSO to measure the changes in frequency (Δf) and dissipation (ΔD) values.
# Or10a/Orco = target: T3, Or10a/Orco (Drosophila melanogaster, UniProt Q9VYZ1); experiment: QCM-D sensor, Or10a/Orco liposomes; conditions: 1.6 to 1000 μM in PBS with 1% DMSO
# T3 construct: his-tag; made in house; host or cells: baculovirus-infected Sf9 cells
# T3 sequence (Q9VYZ1 1-406): T2 sequence (Q9VYZ1 1-406)
# T3 sequence (Q9VNB5 1-486 partner): T1 sequence (Q9VNB5 1-486)
# Description: as §1
Compound,sensor response to ligand (Orco),change in oscillation frequency on ligand exposure (Or10a),change in oscillation frequency on ligand exposure (Or10a/Orco)
CCCCCC(=O)OC [methyl hexanoate],negligible response,negligible response; also recorded: not observed,negligible response; also recorded: not observed
COC(=O)c1ccccc1O [methyl salicylate],negligible response,increase in the frequency,greater response; also recorded: increase in the frequency

# Reference: patent US20210255184A1, “Biosensor Device and Methods” (The New Zealand Institute for Plant and Food Research …, priority 2018, published 2021)
